Source: patent US20230357856A1, “METHODS AND COMPOSITIONS FOR PROGNOSING GLIOBLASTOMA OR BREAST CANCER” (The Johns Hopkins University, priority 2020, published 2023)
“Also recorded” adds a separate entry of the source.

System: metastatic MDA-MB-231 breast cancer cells
Experiment: Microfluidic Assay for Quantification of Cell Invasion (MAqCI), migration of breast cancer cells
Format: cell-based
Settings: 5 µM, 13 hours post administration, MDA-MB-231 cells, compared to vincristine (VC); FIG. 24

Fc1ccc([C@@H]2CCNC[C@H]2COc2ccc3c(c2)OCO3)cc1 [paroxetine]
percentage of migratory cells in MAqCI: down to the levels of non-metastatic cells; also recorded: decreases the percent of migratory cells to the level of non-metastatic cells
